# Reference: publication PMC6219549, “Emergence of a cholecystokinin/sulfakinin signalling system in Lophotrochozoa” (Scientific Reports, 2018)
# “Also recorded” adds a separate entry of the source. Where two headings read alike, the source gives them in different places. Where a SMILES comes first, the peptide text is derived from it. Where no end group is shown, it is not given here. [ ]: non-standard residue; d: D form. sY = N[C@@H](Cc1ccc(OS(=O)(=O)O)cc1)C(=O)O; pGlu = O=C1CC[C@@H](C(=O)O)N1
# What was measured:
# oyster hindgut = assay: Myotropic bioassay on oyster hindgut; parameters: species or system Crassostrea gigas; details: for Duration, Relaxation (R) / Duration, Contraction (C) / Duration, Period (P) / Amplitude (A): mean ± SEM of four experiments, SEM; for Minimal threshold concentration inducing hindgut contraction: isolated oyster hindgut, perfused muscle chamber
# Protocol: The myotropic bioassay was performed using oyster's hindgut according to the protocol described earlier for the cuttlefish oviduct. The muscle chamber was perfused at a flow rate of 0.67 mL.min^-1. Increasing concentrations of synthetic peptides (Cragi-CCK1, [[…], [[…], [[…]) were injected in the perfusing flow using a three-way valve to avoid mechanical stress. The flow of the samples into the muscle chamber was traced by adding phenol red.
# Cragi-CCKR2 = target: T1, Cragi-CCKR2 (Magallana gigas, UniProt A0A345BJM9); assay: Calcium fluorescence (mobilization) assay, Cragi-CCKR2 in HEK293T cells; format: cell-based, Crassostrea gigas; details: for EC50: HEK293T transiently transfected with Cragi-CCKR2, Fluo-4 calcium response, 37 °C, read-out: EC50 for receptor activation, Cragi-CCKR2
# T1 sequence (A0A345BJM9 1-406): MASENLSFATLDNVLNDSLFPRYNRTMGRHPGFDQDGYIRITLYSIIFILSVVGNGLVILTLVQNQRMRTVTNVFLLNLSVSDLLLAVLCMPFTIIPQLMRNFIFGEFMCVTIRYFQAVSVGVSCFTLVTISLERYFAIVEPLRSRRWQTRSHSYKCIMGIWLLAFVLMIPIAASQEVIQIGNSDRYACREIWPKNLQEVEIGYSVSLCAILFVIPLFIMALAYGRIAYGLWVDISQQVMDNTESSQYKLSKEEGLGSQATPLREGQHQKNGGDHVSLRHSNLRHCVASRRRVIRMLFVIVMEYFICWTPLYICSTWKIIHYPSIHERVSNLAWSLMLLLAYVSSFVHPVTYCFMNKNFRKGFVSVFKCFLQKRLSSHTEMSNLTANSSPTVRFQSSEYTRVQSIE
# Source text: (§1) The CDS of the Cragi-CCKR genes were amplified by PCR (Pfu DNA polymerase, Promega) using gene-specific sense primers harbouring a Kozak consensus sequence and antisense primers (Supplementary Table 3). Ten nanogram of plasmid DNA (Pal 17.3 vector, Evrogen) from a C. gigas “all developmental stages and adult central nervous system” directional and normalized cDNA library[62] was used as template. The resulting PCR products were directionally cloned into the pcDNA3.1 expression vector (Invitrogen). The correct insertion of the PCR products was confirmed by sequencing. Human Embryonic Kidney (HEK293T) cells were transiently transfected with the Cragi-CCKR/pcDNA3.1 constructs using Fugene HD (Promega) according to the manufacturer’s instructions. As a first step, co-transfection was done with a pcDNA3.1 expression construct for the human Gα16 subunit, a promiscuous G protein that can direct intracellular signalling of GPCRs to the release of calcium via the phospholipase Cβ pathway, regardless of the endogenous G protein coupling of the receptor[63]. To assess receptor activity independent of Gα16, calcium responses were measured in cells expressing only the Cragi-CCKRs. Cells for negative control experiments were transfected with empty pcDNA3.1 and Gα16/pcDNA3.1 constructs.
# (§2) Activation of the Cragi-CCKRs by candidate peptide ligands was monitored using a fluorescence-based calcium mobilization assay. Briefly, transfected HEK293T cells were loaded with Fluo-4 Direct (Invitrogen) plus probenecid (qsp 2.5 mM final in the cell) (Molecular Probes) for 1 hour (45 min at 37 °C and 15 min at room temperature). Excitation of the fluorophore was done at 488 nm. The calcium response was measured for 2 min at 525 nm using a FLEXstation 3 (Molecular Devices) at 37 °C. Data were analysed using SoftMax Pro (Molecular Devices). Candidate ligands were first tested at a final concentration of 10^−5 M. Concentration-response measurements of activating ligands were conducted in quadruplicate and for at least three independent experiments. Half maximal effective concentrations (EC50 values) were calculated from concentration-response curves that were constructed using nonlinear regression analysis with a sigmoidal dose-response equation using Prism 5.0 (GraphPad software, USA).
# Cragi-CCKR1 = target: T2, Cragi-CCKR1 (Magallana gigas, UniProt A0A345BJM8); assay: Calcium fluorescence (mobilization) assay, Cragi-CCKR1 in HEK293T cells; format: cell-based, Crassostrea gigas; details: for EC50: HEK293T transiently transfected with Cragi-CCKR1, Fluo-4 calcium response, 37 °C, read-out: EC50 for receptor activation, Cragi-CCKR1
# T2 sequence (A0A345BJM8 1-408): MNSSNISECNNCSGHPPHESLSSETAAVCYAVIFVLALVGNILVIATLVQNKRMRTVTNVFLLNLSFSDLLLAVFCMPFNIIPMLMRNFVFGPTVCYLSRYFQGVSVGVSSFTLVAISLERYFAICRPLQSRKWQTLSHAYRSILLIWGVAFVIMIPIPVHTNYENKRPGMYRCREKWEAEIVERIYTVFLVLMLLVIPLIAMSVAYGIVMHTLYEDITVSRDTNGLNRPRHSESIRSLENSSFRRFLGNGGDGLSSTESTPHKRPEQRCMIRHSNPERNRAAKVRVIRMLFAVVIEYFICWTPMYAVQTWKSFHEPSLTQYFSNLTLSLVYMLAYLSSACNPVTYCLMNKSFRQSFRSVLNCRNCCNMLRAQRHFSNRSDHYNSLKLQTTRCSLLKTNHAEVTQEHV
# Source text: as §1, §2
# [1] = high concentrations, HEK293T, Fig. 4
# [2] = concentration-response in quadruplicate, at least three independent experiments
# [3] = times more potent than non-sulphated Cragi-CCK1, calcium assay
# [4] = folds more potent than [Y^8S] Cragi-CCK1, calcium assay
compound,measurement,setting,value
FMRF-amide [reference compound],Hindgut effect (in words),oyster hindgut; concentration of 10^−7M,No effect
"GALRF-amide [oyster GALRF-amide unrelated neuropeptide used as negative control, reference compound]",Calcium response of Cragi-CCKR2 to negative control peptide,Cragi-CCKR2; [1],No response
same,Calcium response of Cragi-CCKR1 to negative control peptide,Cragi-CCKR1; [1],No response
CC(C)C[C@H](NC(=O)CNC(=O)[C@H](Cc1ccc(OS(=O)(=O)O)cc1)NC(=O)[C@H](CC(=O)O)NC(=O)[C@H](Cc1ccc(O)cc1)NC(=O)[C@H](CC(=O)O)NC(=O)[C@H](Cc1c[nH]c2ccccc12)NC(=O)[C@H](C)NC(=O)CNC(=O)[C@@H]1CCC(=O)N1)C(=O)NCC(=O)NCC(=O)NCC(=O)N[C@@H](CCCNC(=N)N)C(=O)N[C@@H](Cc1ccccc1)C(N)=O [[Y^8S] Cragi-CCK1] ([pGlu]GAWDYD[sY]GLGGGRF-NH2),EC50,Cragi-CCKR2; [2],10 ± 1.9 nM
same,"Potency relative to non-sulphated counterpart (Cragi-CCK1), Cragi-CCKR2",Cragi-CCKR2; [3],50 times
same,EC50,Cragi-CCKR1; [2],2.29 ± 1.55 nM
same,"Potency relative to non-sulphated counterpart (Cragi-CCK1), Cragi-CCKR1",Cragi-CCKR1; [3],90 times
same,"Duration, Relaxation (R)","oyster hindgut; Peptide 10^−10M, no peptide 11,08 ± 2,27","17,62 ± 5,27 min"
same,"Duration, Contraction (C)","oyster hindgut; Peptide 10^−10M, no peptide 18,58 ± 1,03","37,13 ± 3,28 min"
same,"Duration, Period (P)","oyster hindgut; Peptide 10^−10M, no peptide 29,66 ± 2,22","54,75 ± 1,97 min"
same,Amplitude (A),"oyster hindgut; Peptide 10^−10M, no peptide 0,121 ± 0,025","0,173 ± 0,023 g"
same,Minimal threshold concentration inducing hindgut contraction,oyster hindgut,10^−10 M
FDYGGGRW-NH2 [Cragi-CCK2],EC50,Cragi-CCKR2; values given in M,> 100000 nM
same,EC50,Cragi-CCKR1; values given in M,> 100000 nM
N=C(N)NCCC[C@H](NC(=O)CNC(=O)CNC(=O)CNC(=O)[C@H](Cc1ccc(OS(=O)(=O)O)cc1)NC(=O)[C@H](CC(=O)O)NC(=O)[C@@H](N)Cc1ccccc1)C(=O)N[C@@H](Cc1c[nH]c2ccccc12)C(N)=O [[Y^3S] Cragi-CCK2] (H-FD[sY]GGGRW-NH2),EC50,Cragi-CCKR2; values given in M,> 100000 nM
CC(C)C[C@H](NC(=O)CNC(=O)[C@H](Cc1ccc(O)cc1)NC(=O)[C@H](CC(=O)O)NC(=O)[C@H](Cc1ccc(OS(=O)(=O)O)cc1)NC(=O)[C@H](CC(=O)O)NC(=O)[C@H](Cc1c[nH]c2ccccc12)NC(=O)[C@H](C)NC(=O)CNC(=O)[C@@H]1CCC(=O)N1)C(=O)NCC(=O)NCC(=O)NCC(=O)N[C@@H](CCCNC(=N)N)C(=O)N[C@@H](Cc1ccccc1)C(N)=O [[Y^6S] Cragi-CCK1] ([pGlu]GAWD[sY]DYGLGGGRF-NH2),Activation of Cragi-CCKR2 (in words),"Cragi-CCKR2; doses as high as 10^−5M, calcium assay in HEK293T",inactive; also recorded: No activation
same,EC50,Cragi-CCKR1; [2],16.4 ± 0.1 nM
same,"Duration, Relaxation (R)","oyster hindgut; Peptide 10^−5M, no peptide 11,35 ± 0,85","11,23 ± 0,60 min"
same,"Duration, Contraction (C)","oyster hindgut; Peptide 10^−5M, no peptide 20,18 ± 0,98","21 ± 1,42 min"
same,"Duration, Period (P)","oyster hindgut; Peptide 10^−5M, no peptide 31,53 ± 1,45","32,23 ± 1,53 min"
same,Amplitude (A),"oyster hindgut; Peptide 10^−5M, no peptide 0,129 ± 0,019","0,104 ± 0,021 g"
same,Hindgut response (in words),oyster hindgut; concentration up to 10^−5M,No response
CC(C)C[C@H](NC(=O)CNC(=O)[C@H](Cc1ccc(O)cc1)NC(=O)[C@H](CC(=O)O)NC(=O)[C@H](Cc1ccc(O)cc1)NC(=O)[C@H](CC(=O)O)NC(=O)[C@H](Cc1c[nH]c2ccccc12)NC(=O)[C@H](C)NC(=O)CNC(=O)[C@@H]1CCC(=O)N1)C(=O)NCC(=O)NCC(=O)NCC(=O)N[C@@H](CCCNC(=N)N)C(=O)N[C@@H](Cc1ccccc1)C(N)=O [Cragi-CCK1] ([pGlu]GAWDYDYGLGGGRF-NH2),EC50,Cragi-CCKR2; [2],462 ± 67 nM
same,EC50,Cragi-CCKR1; [2],195 ± 20 nM
same,"Duration, Relaxation (R)","oyster hindgut; Peptide 10^−7M, no peptide 10,48 ± 0,78","16,03 ± 1,13 min"
same,"Duration, Contraction (C)","oyster hindgut; Peptide 10^−7M, no peptide 20,18 ± 0,33","35,23 ± 1,32 min"
same,"Duration, Period (P)","oyster hindgut; Peptide 10^−7M, no peptide 30,67 ± 0,67","51,27 ± 0,15 min"
same,Amplitude (A),"oyster hindgut; Peptide 10^−7M, no peptide 0,161 ± 0,038","0,203 ± 0,038 g"
same,Minimal threshold concentration inducing hindgut contraction,oyster hindgut,10^−7 M
CC(C)C[C@H](NC(=O)CNC(=O)[C@H](Cc1ccc(OS(=O)(=O)O)cc1)NC(=O)[C@H](CC(=O)O)NC(=O)[C@H](Cc1ccc(OS(=O)(=O)O)cc1)NC(=O)[C@H](CC(=O)O)NC(=O)[C@H](Cc1c[nH]c2ccccc12)NC(=O)[C@H](C)NC(=O)CNC(=O)[C@@H]1CCC(=O)N1)C(=O)NCC(=O)NCC(=O)NCC(=O)N[C@@H](CCCNC(=N)N)C(=O)N[C@@H](Cc1ccccc1)C(N)=O [[Y^6S-Y^8S] Cragi-CCK1] ([pGlu]GAWD[sY]D[sY]GLGGGRF-NH2),EC50,Cragi-CCKR2; [2],1.98 ± 0.25 nM
same,"Potency relative to mono-sulphated [Y^8S] Cragi-CCK1, Cragi-CCKR2",Cragi-CCKR2; [4],5 folds
same,EC50,Cragi-CCKR1; [2],1.1 ± 0.25 nM
same,"Potency relative to mono-sulphated [Y^8S] Cragi-CCK1, Cragi-CCKR1",Cragi-CCKR1; [4],2 folds
same,"Duration, Relaxation (R)","oyster hindgut; Peptide 10^−9M, no peptide 11,80 ± 1,63","23,82 ± 1,35 min"
same,"Duration, Contraction (C)","oyster hindgut; Peptide 10^−9M, no peptide 18,76 ± 1,07","38,57 ± 3,53 min"
same,"Duration, Period (P)","oyster hindgut; Peptide 10^−9M, no peptide 30,57 ± 2,22","62,39 ± 2,50 min"
same,Amplitude (A),"oyster hindgut; Peptide 10^−9M, no peptide 0,103 ± 0,006","0,153 ± 0,016 g"
same,Minimal threshold concentration inducing hindgut contraction,oyster hindgut,10^−9 M
